Laboratory results from patent publication US20040265803A1, “Genes and their genetic products pertinent to microsatellite instable (msi+) tumours” (priority 2000, published 2004).

Tested on: CD8+ T cells
Experiment: IFN-gamma ELISpot analysis of T cells stimulated with neopeptide-loaded autologous CD40-activated B cells
Type: cell-based, human
Conditions: T cells from HLA-A0201-positive healthy proband, weekly stimulation

Row | Sequence | reactivity (IFN-gamma ELISpot) (day 35) | reactivity (IFN-gamma ELISpot) (day 28)
1 | FLSASHFLL [peptide #15, HLA-A0201-restricted neopeptide encoded by mutated cMNR] | 1123 specific cells/1,000,000 cells | 
2 | SLYKFSPFPL [peptide #16, HLA-A0201-restricted neopeptide encoded by mutated cMNR] |  | 1760 specific cells/1,000,000 cells
3 | TLSPGWSAV [peptide #21, HLA-A0201-restricted neopeptide encoded by mutated cMNR] | 733 specific cells/1,000,000 cells | 
